The source of these data is patent US9970037B2, “Methods and materials for making simvastatin and related compounds” (The Regents of the University of California, priority 2006, dated 2018).

One assay has as its system E. coli BL21(DE3)/pAW31. Put plainly: Whole cell biocatalysis with E. coli overexpressing LovD. Particulars: 0.5 mM lovastatin (sodium salt form). Format: cell-based, Escherichia coli. How it is done:
The BL21(DE3)/pAW31 overexpression strain was grown in a shake flask (200 mL) to an OD600 of 1.0, at which time 1 mM IPTG, 0.8 mM monacolin J and 4 mM of either benzoyl-SNAC or benzoyl-SMTG were added to the culture. Expression of LovD and bioconversion was performed at 18° C. The culture was extracted and analyzed for the formation of 8-benzoyl-monacolin J. When supplemented with benzoyl-SNAC, 84% conversion of monacolin J was detected within 20 hours post-induction. The product was lactonized and purified by a single silica-gel chromatography step. The NMR spectra confirmed the regioselective benzoylation of the C8 hydroxyl group as the diagnostic H8 multiplet is shifted downfield to δ 5.61.
Fermentation conditions: 500 mL culture with LB media with 30 mg/L kanamycin. At OD600 of 1.0, cells were concentrated to a final OD600 of 5.0 and induced with 1 mM IPTG. Substrates monacolin J and α-dimethylbutyryl-SNAC were added to a final concentration of 1 mM and 4 mM. At different time points, culture samples were collected, centrifuged, filtered and injected on to HPLC (20 μL). Extraction conditions: When maximum conversion was reached, the broth was acidified to pH of 2.0, extracted with ethyl acetate, dried and redissolved in toluene.
Whole-cell catalytic synthesis of simvastatin acid from MJ acid and DMB-S-MMP were performed as described (see, e.g., Xie et al., (2007) Appl Environ Microbiol 73: 2054-2060). The E. coli BL21(DE3)/pAW31 and YT2/pAW31 strains were cultured side-by-side for comparison. A single colony of the freshly transformed strains was used to inoculate a 5 mL LB culture supplemented with 35 mg/L kanamycin and grown overnight at 37° C. The next morning, 100 μL of the overnight culture was inoculated into 50 mL cultures containing LB broth, F1 minimal medium and F1 medium supplemented with 0.15 mg/L biotin. Growth rates were monitored by periodically measuring the OD600 reading. When OD600 reached ˜0.5, 100 μM IPTG was added to the culture and expression of LovD was performed at 20° C. for 16 hours. To mimic high density fermentation conditions, the cells were concentrated 10-fold before addition of substrates. Typically, a 14 mL aliquot of the culture was transferred to a 15 mL centrifuge tube and the cells were collected by centrifugation (4° C., 4000 g, 10 minutes). The cell pellet was gently resuspended in 1316 μl of the supernatant, followed by addition of 84 μl of a MJ acid stock solution (250 mM in H2O) (final concentration 15 mM). The concentrated culture was then separated into seven 200 μL samples and 1.2 μL of pure DMB-S-MMP was added to each sample (final concentration ˜25 mM). The culture was then shaken at 300 rpm at room temperature. At each time point, a total extraction was performed by adding 10 μL 20% SDS to lyse the cells, followed by liquid-liquid extraction with 500 μL EA/1% AcOH. The organic phase was removed, evaporated, and redissolved in 50 μL ACN for HPLC analysis. For the BL21(DE3) sample, an additional 1.2 μL aliquot of DMB-S-MMP was added after 12 hours to replenish the hydrolyzed substrates.
The E. coli BL21(DE3)/pAW31 strain was grown in LB medium at 37° C. to an OD600 of 0.5, at which time 100 μM IPTG was added to the culture and expression was performed at RT for 16 hours. A 10 ml culture was transferred to a 15 mL centrifuge tube. The cells were collected by centrifugation (4000 g, 10 minutes). The cell pellet was resuspended in 957 μl of the supernatant. The pH was adjusted to pH 7.9 with 1.0 N NaOH, followed by addition of 33 μl 450 mM MJ (final concentration 15 mM) and 6 μl pure DMB-S-MMP (final concentration ˜25 mM). The culture was then shaken at 300 rpm at room temperature. At each time point, a 4 μL aliquot was removed from the reaction mixture, quenched in 300 μL ethyl acetate containing 1% TFA.

The next assay addresses T1, LovD (Aspergillus terreus, UniProt Q9Y7D1).
T1 sequence (Q9Y7D1 1-413): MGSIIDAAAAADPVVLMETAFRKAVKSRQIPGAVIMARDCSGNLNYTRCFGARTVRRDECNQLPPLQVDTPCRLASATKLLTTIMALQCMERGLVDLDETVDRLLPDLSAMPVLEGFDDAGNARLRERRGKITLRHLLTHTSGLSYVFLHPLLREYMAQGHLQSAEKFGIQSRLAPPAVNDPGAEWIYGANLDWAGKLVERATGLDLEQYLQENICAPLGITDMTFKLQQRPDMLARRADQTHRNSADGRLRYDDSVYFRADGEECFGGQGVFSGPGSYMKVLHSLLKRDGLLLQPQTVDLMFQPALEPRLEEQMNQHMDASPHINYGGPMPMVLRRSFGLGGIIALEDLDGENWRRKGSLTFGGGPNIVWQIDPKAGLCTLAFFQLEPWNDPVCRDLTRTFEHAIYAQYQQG
The arrangement: 6xHis (N); made in house; host or cells: E. coli BL21(DE3)/pAW31 (pET28a). Particulars: Xie et al., 2006; cited from earlier work.

On to `CC[C@H](C)C(=O)O[C@H]1C[C@@H](C)C=C2C=C[C@H](C)[C@H](CC[C@@H]3C[C@@H](O)CC(=O)O3)[C@H]21` [lovastatin, reference compound], for which, in the assay with E. coli BL21(DE3)/pAW31, the “conversion rate of whole cell hydrolysis” value is listed as about 0.01 mM per hour. Also, the “hydrolysis to monacolin J by whole cells” value in the assay on E. coli BL21(DE3)/pAW31 (48 hours) is 91%. Moreover, on LovD, the “kcat of LovD hydrolysis of lovastatin into monacolin J in vitro (previously reported)” value was 0.0035 s⁻¹.
